melting point: 63 to 65 °C
SMILES: O=C(O)C/C(C(=O)O)=C(\CCCCCCCCCCCCCCCCOS(=O)(=O)O)C(=O)O [1-Z, (Z)-3,4-dicarboxy-20-sulfooxy-3-eicosenoic acid]
